Results as given in patent US9192656B2, “Methods and compositions for the treatment of cancer” (QUINTESSENCE BIOSCIENCES, INC., priority 2006, dated 2015).

How the values were obtained:
tumor = conditions: previous experiments, Cancer Res., 64:4870 [2004]; cited from earlier work
[1] = test system: non-small cell lung cancer cell line (A549); assay: In vivo inhibition of tumor growth, A549 xenograft; design: species or system human tumor cells in nude mice; conditions: for Starting volume: at start
Method: (§1) Cells from a non-small cell lung cancer cell line (A549) were grown in nine T175 flasks in F12K media and 10% fetal calf serum until the cells were confluent. 4.5×10^6 cells (in 100 microliters) were injected into the right rear flank of 4-5 week old male homozygous (nu/nu) nude mice (Harlan, Madison Wis.). Tumors were allowed to grow to an average size of ≧75 mm^3 before treatments were initiated. Animals of each tumor type, with the properly sized tumors, were divided into treatment groups, including one set of animals treated weekly with vehicle (phosphate buffered saline, PBS). The vehicle and the test agents were all administered by intraperitoneal injection. Each animal was weighed twice a week during treatment. The tumors were measured twice weekly using calipers. Tumor volume (mm^3) was determined by using the formula for an ellipsoid sphere:
[formula] The efficacy of wild type human RNase 1 is shown relative to cisplatin. The RNase 1 was administered at 75 mg per kg of body weight of the animal once a week (75 mg/kg 1×wk), while the cisplatin was used at 6 mg/kg once a week. The value of n represents the number of animals in the specific treatment arm of the experiment.
(§2) The percent tumor growth inhibition (% TGI) is calculated by: […]
The xenograft model of this example was set up with the human non-small cell lung cancer cell line (A549) as in the previous examples. The efficacy of wild type human RNase 1 is shown relative to tarceva. The RNase 1 was administered at 75 mg per kg of body weight of the animal (75 mg/kg 1×wk) or 150 mg/kg 1×wk. Tarceva was given orally with doses of 50 mg/kg twice a week. The value of n represents the number of animals in the specific treatment arm of the experiment.

[2] = Clinical chemistry and complete blood count plus platelets (DU145 xenograft mice); format: in vivo
Method: Clinical chemistry and a complete blood count (CBC) plus platelets were performed on whole blood and serum samples collected from the mice 24 hours after the last treatment of the prostate xenograft model above. […] Creatinine was also tested and found not to differ. The levels of the liver enzymes, gamma glutamyl transferase (GGT) and alanine transaminase (ALT) in all treatment groups were similar (GGT data not shown.). The values were determined for the various treatment groups of the prostate (DU145) xenograft study for clinical chemistry (A., B.), complete blood count (C., D.), and platelets (F.). Abbreviations: TCO2, amount of bicarbonate ion (HCO3^−); Anion Gap, [Na+K]—[Cl+HCO3]; ALT, alanine aminotransferase; WBC, white blood count; RBC, red blood count; HGB, hemoglobin; RBC HGB, (CHCM×RBC×MCV)/1000); MCH, mean corpuscular hemoglobin; MCHC, mean corpuscular hemoglobin concentration; RDW, red cell distribution width; MPV, mean platelet volume; HCT, hematocrit; MCV, mean corpuscular volume.

[3] = test system: human pancreatic cancer cell line (B×PC-3); assay: In vivo inhibition of tumor growth, BxPC-3 xenograft; design: species or system human tumor cells in nude mice; conditions: for Starting volume: at start
Method: as §1, with “sphere: […]” for “sphere:”
as §2
(§3) The xenograft model of this example was set up as in the previous example except that a human pancreatic cancer cell line (B×PC-3) was used. The efficacy of wild type human RNase 1 is shown relative to gemcite. The RNase 1 was administered at 15 mg per kg of body weight of the animal five times per week (15 mg/kg qd×5), while the gemcite was used at 60 mg/kg twice a week. The value of n represents the number of animals in the specific treatment arm of the experiment.
as §3, with “shown.” for “shown relative to gemcite.”, “three different doses: (1) 30” for “15”, “once” for “five times”, “(30” for “(15”, “1×wk), (2) 75” for “qd×5), while the gemcite was used at 60”, “1×wk, or (3) 150 mg/kg 1×wk.” for “twice a week.”

[4] = test system: human breast cancer cell line (MDA-MB-231); assay: In vivo inhibition of tumor growth, MDA-MB-231 xenograft; design: species or system human tumor cells in nude mice; conditions: Example 10, Table 14, female mice, RNase 1 75 mg/kg 1×wk, doxorubicin 3 mg/kg once per week
Method: as §1, with “sphere: […]” for “sphere:”
as §2
The xenograft model of this example was set up as in the previous example except that a human breast cancer cell line (MDA-MB-231) and female mice were used. The efficacy of wild type human RNase 1 is shown relative to doxorubicin. The RNase 1 was administered at 75 mg per kg of body weight of the animal once per week (75 mg/kg 1×wk), while the doxorubicin was given at 3 mg/kg once per week. The value of n represents the number of animals in the specific treatment arm of the experiment.

[5] = Example 3, Table 7, i.p., RNase 1 75 mg/kg 1×wk, cisplatin 6 mg/kg once a week
[6] = Example 6, Table 10, 75 mg/kg 1×wk
[7] = Example 6, Table 10, 150 mg/kg 1×wk
[8] = Example 5, Table 9, RNase 1 15 mg/kg qd×5, gemcite 60 mg/kg twice a week
[9] = Example 7, Table 11, 30 mg/kg 1×wk
[10] = Example 7, Table 11, 75 mg/kg 1×wk
[11] = Example 7, Table 11, 150 mg/kg 1×wk

Substance: Wild type human RNase 1: wild type human ribonuclease 1 (human pancreatic RNase), SEQ ID NO:1
- reduction in tumor volume (tumor): did not demonstrate a reduction in tumor volume
- % TGI [1, 5]: 51%
- (Final − start) [1, 5]: 149 mm^3
- (Final − start)/Control [1, 5]: 0.49
- Final volume [1, 5]: 217 mm^3
- Starting volume [1, 5]: 68 mm^3
- % TGI [1, 6]: 63%
- (Final − start) [1, 6]: 300 mm^3
- (Final − start)/Control [1, 6]: 0.37
- Final volume [1, 6]: 378 mm^3
- Starting volume [1, 6]: 78 mm^3
- % TGI [1, 7]: 66%
- (Final − start) [1, 7]: 276 mm^3
- (Final − start)/Control [1, 7]: 0.34
- Final volume [1, 7]: 355 mm^3
- Starting volume [1, 7]: 79 mm^3
- Creatinine versus vehicle ([2]; 24 hours after the last treatment): not to differ
- Clinical chemistry and complete blood count plus platelets, all tests, versus vehicle ([2]; whole blood and serum 24 hours after the last treatment, Mann-Whitney U test): not to be significantly different
- % TGI [3, 8]: 24%
- (Final − start) [3, 8]: 822 mm^3
- (Final − start)/Control [3, 8]: 0.76
- Final volume [3, 8]: 899 mm^3
- Starting volume [3, 8]: 77 mm^3
- % TGI [3, 9]: 3%
- (Final − start) [3, 9]: 554 mm^3
- (Final − start)/Control [3, 9]: 0.97
- Final volume [3, 9]: 632 mm^3
- Starting volume [3, 9]: 78 mm^3
- % TGI [3, 10]: 43%
- (Final − start) [3, 10]: 323 mm^3
- (Final − start)/Control [3, 10]: 0.57
- Final volume [3, 10]: 392 mm^3
- Starting volume [3, 10]: 69 mm^3
- % TGI [3, 11]: 29%
- (Final − start) [3, 11]: 402 mm^3
- (Final − start)/Control [3, 11]: 0.71
- Final volume [3, 11]: 471 mm^3
- Starting volume [3, 11]: 69 mm^3
- % TGI [4]: 64%
- (Final − start) [4]: 50 mm^3
- (Final − start)/Control [4]: 0.36
- Final volume [4]: 121 mm^3
- Starting volume ([4]; at start): 71 mm^3
